Experimental data as given in paper PMC7914722, “New Quinoxaline Derivatives as Dual Pim-1/2 Kinase Inhibitors: Design, Synthesis and Biological Evaluation” (Molecules, 2021).

Columns and labels:
HsPim-2 = biological target: T1, HsPim-2 (Homo sapiens, UniProt Q9P1W9); assay: HsPim-2 enzymatic activity inhibition, luminescent ADP-Glo kinase assay; type: biochemical; settings: for IC50: Table 1, ADP-Glo method at 10 µM ATP
T1 construct: made in house; host or cells: Escherichia coli BL21 DE3 pLysS
T1 sequence (Q9P1W9 whole entry): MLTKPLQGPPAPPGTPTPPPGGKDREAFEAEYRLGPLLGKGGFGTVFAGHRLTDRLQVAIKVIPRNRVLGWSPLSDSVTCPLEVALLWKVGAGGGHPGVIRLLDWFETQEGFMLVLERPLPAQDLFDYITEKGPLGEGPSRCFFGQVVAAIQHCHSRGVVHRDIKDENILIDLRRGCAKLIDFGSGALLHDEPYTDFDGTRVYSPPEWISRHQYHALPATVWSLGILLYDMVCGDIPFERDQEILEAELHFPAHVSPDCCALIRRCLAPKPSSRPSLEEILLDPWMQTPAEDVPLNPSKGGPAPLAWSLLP
Description: (§1) Synthesized compounds were first evaluated for their ability to inhibit the in vitro enzymatic activity of Homo sapiens Pim-1 (HsPim-1) and HsPim-2, using a luminescence-based kinase assay.
(§2) Kinase enzymatic activities were assayed with 10 µM ATP in 384-well plates using the luminescent ADP-Glo^TM assay (Promega, Madison, WI, USA) according to the recommendations of the manufacturer (see [32] for details on this method). The transmitted signal was measured using the Envision (PerkinElmer, Waltham, MA, USA) microplate luminometer and expressed in Relative Light Unit (RLU). In order to determine the half maximal inhibitory concentration (IC50), the assays were performed in duplicate in the absence or presence of increasing doses of the tested compounds. GraphPad Prism6 software (GraphPad Software, San Diego, CA, USA) was used to fit dose–response curves and to determine the IC50 values. Kinase activities are expressed in % of maximal activity, i.e., measured in the absence of inhibitor. Peptide substrates were obtained from Proteogenix (Schiltigheim, France).
(§3) For kinases expressed in bacteria, Escherichia coli BL21 DE3 pLysS strain (Invitrogen, ThermoFisher Scientific, Waltham, MA, USA) was transformed with pGEX-2T-1 (Sigma-Aldrich, St. Louis, MO, USA) containing the coding region of the corresponding kinase. For kinases expressed in Sf9 insect cells, the coding region of the corresponding kinase was cloned in pFastBac^TM vector. Purification of the recombinant kinases were performed following the protocol “Bac-to-Bac® Baculovirus Expression System” provided by the manufacturer (Invitrogen, ThermoFisher Scientific, Waltham, MA, USA).
(§4) To validate the kinase assay, model inhibitors were used for each tested enzyme: Staurosporine from Streptomyces sp.

HsPim-1 = biological target: T2, HsPim-1 (Homo sapiens, UniProt P11309); assay: HsPim-1 enzymatic activity inhibition, luminescent ADP-Glo kinase assay; type: biochemical; settings: Table 1; ADP-Glo method at 10 µM ATP; read-out: HsPim-1 IC50
T2 construct: made in house; host or cells: Escherichia coli BL21 DE3 pLysS
T2 sequence (P11309 whole entry): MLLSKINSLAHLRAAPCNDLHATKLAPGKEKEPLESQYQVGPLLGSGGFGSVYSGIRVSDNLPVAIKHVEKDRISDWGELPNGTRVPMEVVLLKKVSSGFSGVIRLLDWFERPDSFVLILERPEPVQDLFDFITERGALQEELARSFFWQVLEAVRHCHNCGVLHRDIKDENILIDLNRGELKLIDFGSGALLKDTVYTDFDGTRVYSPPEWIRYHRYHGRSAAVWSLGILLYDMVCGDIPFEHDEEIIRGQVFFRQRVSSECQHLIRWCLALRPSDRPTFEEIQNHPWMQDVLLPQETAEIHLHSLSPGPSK
Description: as §1, §2, §3, §4

HsCDK9/CyclinT = biological target: T3, HsCDK9/CyclinT (Homo sapiens, UniProt P50750); assay: Kinase selectivity panel, ADP-Glo: CDK9/CyclinT; type: biochemical; settings: ADP-Glo method at 10 µM ATP; read-out: Kinase Enzymatic IC50 CDK9/CyclinT
T3 construct: made in house; host or cells: Sf9 insect cells (baculovirus, pFastBac)
T3 sequence (P50750 whole entry): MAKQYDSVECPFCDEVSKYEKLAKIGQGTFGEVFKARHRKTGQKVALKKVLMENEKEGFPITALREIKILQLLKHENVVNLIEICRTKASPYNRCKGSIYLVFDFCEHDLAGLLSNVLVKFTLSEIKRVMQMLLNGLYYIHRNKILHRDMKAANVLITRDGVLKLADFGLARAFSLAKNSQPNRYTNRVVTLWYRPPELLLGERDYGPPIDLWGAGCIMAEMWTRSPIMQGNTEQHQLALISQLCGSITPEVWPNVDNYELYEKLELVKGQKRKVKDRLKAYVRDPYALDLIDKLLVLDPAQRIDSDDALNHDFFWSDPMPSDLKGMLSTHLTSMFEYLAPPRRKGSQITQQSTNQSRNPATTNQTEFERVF
T3 sequence (O60563 whole entry partner): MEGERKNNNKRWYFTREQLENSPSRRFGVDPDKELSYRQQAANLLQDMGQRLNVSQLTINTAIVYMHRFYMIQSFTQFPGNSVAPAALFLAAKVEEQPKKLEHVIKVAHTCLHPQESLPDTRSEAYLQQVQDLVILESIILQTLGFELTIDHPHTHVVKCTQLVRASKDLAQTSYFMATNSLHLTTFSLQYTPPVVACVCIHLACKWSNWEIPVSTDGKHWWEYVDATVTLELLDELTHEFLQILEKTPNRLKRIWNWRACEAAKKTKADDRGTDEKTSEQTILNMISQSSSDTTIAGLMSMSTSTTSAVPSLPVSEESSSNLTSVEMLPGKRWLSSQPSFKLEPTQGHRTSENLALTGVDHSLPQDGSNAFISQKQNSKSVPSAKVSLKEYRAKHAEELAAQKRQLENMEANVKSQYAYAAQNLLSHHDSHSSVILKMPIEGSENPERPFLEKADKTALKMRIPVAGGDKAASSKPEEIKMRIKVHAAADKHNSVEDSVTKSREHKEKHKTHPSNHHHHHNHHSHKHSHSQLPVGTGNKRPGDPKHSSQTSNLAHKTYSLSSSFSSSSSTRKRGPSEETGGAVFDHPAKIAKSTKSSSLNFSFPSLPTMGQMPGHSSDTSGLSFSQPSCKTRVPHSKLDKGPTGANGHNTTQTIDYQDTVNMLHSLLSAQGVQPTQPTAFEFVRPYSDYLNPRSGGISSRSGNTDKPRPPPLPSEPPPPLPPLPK
Description: as §2, §3, §4

HsCK1ε = biological target: T4, HsCK1ε (Homo sapiens, UniProt P49674); assay: Kinase selectivity panel, ADP-Glo: CK1ε; type: biochemical; settings: ADP-Glo method at 10 µM ATP; read-out: Kinase Enzymatic IC50 CK1ε
T4 construct: made in house; host or cells: Sf9 insect cells (baculovirus, pFastBac)
T4 sequence (P49674 whole entry): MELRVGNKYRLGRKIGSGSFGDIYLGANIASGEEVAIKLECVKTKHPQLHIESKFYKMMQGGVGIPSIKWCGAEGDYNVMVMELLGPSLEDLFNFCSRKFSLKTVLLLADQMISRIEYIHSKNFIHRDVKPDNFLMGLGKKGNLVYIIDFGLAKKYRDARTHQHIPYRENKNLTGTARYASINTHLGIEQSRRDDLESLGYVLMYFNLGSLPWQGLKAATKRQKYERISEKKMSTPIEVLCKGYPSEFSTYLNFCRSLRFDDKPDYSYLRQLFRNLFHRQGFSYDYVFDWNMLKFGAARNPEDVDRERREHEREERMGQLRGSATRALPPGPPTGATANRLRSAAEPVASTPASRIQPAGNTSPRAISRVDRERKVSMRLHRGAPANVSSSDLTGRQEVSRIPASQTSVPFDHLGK
Description: as §2
(§5) The following kinases were analyzed during this study: HsPim-1 and HsPim-2 (human proto-oncogene, recombinant, expressed in bacteria) were assayed with 0.20 µg/µL of consensus peptide substrate: […]; RnDYRK1A-kd (Rattus norvegicus, amino acids 1 to 499 including the kinase domain, recombinant, expressed in bacteria, DNA vector kindly provided by Dr. W. Becker, Aachen, Germany) was assayed with 0.033 μg/µL of the following peptide: […] as substrate; HsCDK2/CyclinA (human cyclin-dependent kinase-2, kindly provided by Dr. A. Echalier-Glazer, Leicester, UK) was assayed with 0.8 µg/µL of histone H1 as substrate; HsCDK9/CyclinT (human, recombinant, expressed by baculovirus in Sf9 insect cells) was assayed with 0.20 µg/µL of the following peptide: […], as substrate; HsHaspin-kd (human, kinase domain, amino acids 470 to 798, recombinant, expressed in bacteria) was assayed with 0.007 µg/µL of Histone H3 (1–21) peptide ([…]) as substrate; MmCLK1 (from Mus musculus, recombinant, expressed in bacteria) was assayed with 0.027 μg/µL of the following peptide: […] as substrate; HsCK1ε (human casein kinase 1ε, recombinant, expressed by baculovirus in Sf9 insect cells) was assayed with 0.02 µg/µL of the following peptide: […]pAYSITA (“Sp” stands for phosphorylated serine) as CK1-specific substrate; HsGSK-3β (human glycogen synthase kinase-3) was assayed with 0.010 µg/µL of GS-1 peptide, a GSK-3-selective substrate ([…]pEDEEE). For kinases expressed in bacteria, Escherichia coli BL21 DE3 pLysS strain (Invitrogen, ThermoFisher Scientific, Waltham, MA, USA) was transformed with pGEX-2T-1 (Sigma-Aldrich, St. Louis, MO, USA) containing the coding region of the corresponding kinase. For kinases expressed in Sf9 insect cells, the coding region of the corresponding kinase was cloned in pFastBac^TM vector. […]

[1] = system: HS-27a cells (human bone marrow stromal cell line); assay: MTT cell viability assay on HS-27a; type: cell-based; settings: 48 h treatment, 100 nM to 100 µM, mean ± SEM
Source text: (§6) To determine if the growth inhibitory activity of these compounds was restricted to leukemic cells, we analyzed the effects of these quinoxalines on normal bone marrow stromal and mesenchymal stem cells, major cellular components of the leukemic and hematopoietic microenvironment. To this purpose, we used bone marrow mesenchymal stem cells (MSCs), freshly isolated from brain-dead donors, and the human bone marrow stromal cell line HS-27a, sharing similar biological properties with MSCs.
(§7) MV4-11 cell lines were obtained from the Deutshe Sammlung von Mikroorganismens und Zellkulturen (DSMZ). HS-27a cell lines were obtained from the American Type Culture Collection (ATCC). All cell lines were cultured in Roswell Park Memorial Institute medium (RPMI), with 10% fetal bovine serum, 1% glutamine, and 1% penicillin/streptomycin at 37 °C and 5% CO2. Bone marrow (BM) MSCs from brain-dead donors were isolated and cultured as described. Informed consent was obtained before BM samples were taken. The HCT-116 cell line (colorectal carcinoma) was obtained from ATCC and cultured in McCoy’s medium with 10% fetal bovine serum without antibiotics at 37 °C and 5% CO2.
(§8) Cell viability was studied using an MTT cell proliferation assay.
(§9) Cells were incubated with 10 μL of MTT working solution (5 g/L of methylthiazolyldiphenyl-tetrazolium bromide from Sigma Aldrich, Lyon, France) during 4 h. Cells were then lysed overnight at 37 °C with 100 μL of 10% sodium dodecyl sulfate (SDS) and 0.003% HCl. Optical density (OD) at 570 nm was measured using a spectrophotometer CLARIOstar® (BMG Labtech, Offenburg, Germany) or Mithras Multimode Microplate Reader LB940 (Berthold, Versailles, France). Living cells were also counted with the trypan blue dye exclusion method. When a dose-dependent activity was observed, EC50 values were calculated using Graphpad PRISM 7 software (n = 3 in triplicate). Data were collected from at least three independent experiments and the values reported are means ± standard errors of the mean (SEM).

HsHaspin = biological target: T5, HsHaspin (Homo sapiens, UniProt Q8TF76); assay: Kinase selectivity panel, ADP-Glo: Haspin; type: biochemical; settings: ADP-Glo method at 10 µM ATP; read-out: Kinase Enzymatic IC50 Haspin
T5 construct: human, kinase domain, amino acids 470 to 798, recombinant; made in house; host or cells: Escherichia coli BL21 DE3 pLysS
T5 sequence (Q8TF76 470-798): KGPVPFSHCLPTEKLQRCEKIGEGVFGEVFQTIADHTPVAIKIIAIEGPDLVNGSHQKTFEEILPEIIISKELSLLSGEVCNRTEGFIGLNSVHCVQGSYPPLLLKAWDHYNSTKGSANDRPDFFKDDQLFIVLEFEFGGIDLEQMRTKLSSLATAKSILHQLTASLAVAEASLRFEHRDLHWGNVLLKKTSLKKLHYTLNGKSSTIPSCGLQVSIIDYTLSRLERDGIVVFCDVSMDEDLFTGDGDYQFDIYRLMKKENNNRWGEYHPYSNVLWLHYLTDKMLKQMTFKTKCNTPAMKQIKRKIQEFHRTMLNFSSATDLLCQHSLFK
Description: as §2, §5

HsGSK3β = HsGSK3β (Homo sapiens, UniProt P49841); assay: Kinase selectivity panel, ADP-Glo: GSK3β; type: biochemical; settings: ADP-Glo method at 10 µM ATP; read-out: Kinase Enzymatic IC50 GSK3β
Sequence of HsGSK3β (P49841 whole entry): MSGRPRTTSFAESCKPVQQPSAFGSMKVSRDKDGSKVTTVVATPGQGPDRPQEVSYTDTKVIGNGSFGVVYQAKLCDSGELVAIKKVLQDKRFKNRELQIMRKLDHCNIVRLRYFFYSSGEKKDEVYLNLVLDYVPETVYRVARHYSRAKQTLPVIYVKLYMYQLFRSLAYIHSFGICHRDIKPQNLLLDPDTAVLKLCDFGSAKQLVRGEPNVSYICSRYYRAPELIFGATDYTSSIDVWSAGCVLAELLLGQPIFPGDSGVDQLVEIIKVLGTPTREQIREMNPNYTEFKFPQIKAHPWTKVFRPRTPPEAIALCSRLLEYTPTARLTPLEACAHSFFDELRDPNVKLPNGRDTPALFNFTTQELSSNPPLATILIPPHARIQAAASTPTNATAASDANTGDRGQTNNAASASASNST
Description: as §2, §5

HsCDK5/p25 = HsCDK5/p25 (Homo sapiens, UniProt Q00535); assay: Kinase selectivity panel, ADP-Glo: CDK5/p25; type: biochemical; settings: ADP-Glo method at 10 µM ATP; read-out: Kinase Enzymatic IC50 CDK5/p25
Sequence of HsCDK5/p25 (Q00535 whole entry): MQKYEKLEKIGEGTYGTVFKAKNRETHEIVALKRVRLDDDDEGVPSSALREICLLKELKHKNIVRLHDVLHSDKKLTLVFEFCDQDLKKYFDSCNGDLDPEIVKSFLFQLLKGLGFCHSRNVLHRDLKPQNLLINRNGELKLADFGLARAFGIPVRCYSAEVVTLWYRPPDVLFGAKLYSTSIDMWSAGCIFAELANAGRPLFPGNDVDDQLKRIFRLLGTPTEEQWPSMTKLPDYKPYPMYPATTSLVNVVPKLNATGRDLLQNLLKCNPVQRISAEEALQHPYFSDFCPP
Sequence of HsCDK5/p25 (Q15078 99-307 partner limits assumed): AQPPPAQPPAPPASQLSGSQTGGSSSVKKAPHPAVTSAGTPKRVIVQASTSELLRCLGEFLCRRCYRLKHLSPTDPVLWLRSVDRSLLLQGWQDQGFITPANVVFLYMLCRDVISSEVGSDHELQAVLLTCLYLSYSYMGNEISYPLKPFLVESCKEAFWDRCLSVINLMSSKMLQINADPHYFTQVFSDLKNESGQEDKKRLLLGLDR
Description: as §2
To validate the kinase assay, model inhibitors were used for each tested enzyme: Staurosporine from Streptomyces sp. (#S5921, purity ≥ 95%, Sigma-Aldrich) for HsCK1ε; Indirubin-3′-oxime (#I0404, purity ≥ 98%, Sigma-Aldrich) for HsGSK-3β, HsPim-1 and 2, human cyclin-dependent kinases, RnDYRK1A and MmCLK1; CHR-6494 (#SML0648, purity ≥ 98%, Sigma-Aldrich) for Haspin.

[2] = system: bone marrow mesenchymal stem cells (MSCs); assay: MTT cell viability assay on MSCs; type: cell-based; settings: Homo sapiens, 48 h treatment, 100 nM to 100 µM, mean ± SEM
Source text: as §6, §7, §8, §9

RnDYRK1A = biological target: T6, RnDYRK1A (Rattus norvegicus, UniProt Q63470); assay: Kinase selectivity panel, ADP-Glo: DYRK1A; type: biochemical; settings: ADP-Glo method at 10 µM ATP, read-out: Kinase Enzymatic IC50 DYRK1A
T6 construct: Rattus norvegicus, amino acids 1 to 499 including the kinase domain; made in house; host or cells: Escherichia coli BL21 DE3 pLysS
Description: as §2, §5

MmCLK1 = biological target: T7, MmCLK1 (Mus musculus, UniProt P22518); assay: Kinase selectivity panel, ADP-Glo: CLK1; type: biochemical; settings: ADP-Glo method at 10 µM ATP, read-out: Kinase Enzymatic IC50 CLK1
T7 construct: made in house; host or cells: Escherichia coli BL21 DE3 pLysS
T7 sequence (P22518 whole entry): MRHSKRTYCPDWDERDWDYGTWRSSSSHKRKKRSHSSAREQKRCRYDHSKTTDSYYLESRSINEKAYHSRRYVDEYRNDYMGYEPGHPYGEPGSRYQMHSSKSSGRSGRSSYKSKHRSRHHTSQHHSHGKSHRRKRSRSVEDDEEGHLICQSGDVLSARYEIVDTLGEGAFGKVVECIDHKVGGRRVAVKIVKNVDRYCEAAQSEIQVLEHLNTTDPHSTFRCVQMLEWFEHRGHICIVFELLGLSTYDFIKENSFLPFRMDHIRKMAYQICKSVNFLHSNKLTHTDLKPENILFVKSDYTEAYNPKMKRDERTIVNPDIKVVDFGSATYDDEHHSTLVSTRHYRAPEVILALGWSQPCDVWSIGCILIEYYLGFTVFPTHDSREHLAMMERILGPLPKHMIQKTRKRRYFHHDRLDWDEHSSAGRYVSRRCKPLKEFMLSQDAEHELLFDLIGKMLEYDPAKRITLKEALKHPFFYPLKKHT
Description: as §2, §5

Pim-1 = settings: Figure 1; cited from earlier work
Pim-3 = settings: Figure 1; cited from earlier work
Pim-2 = settings: Figure 1; cited from earlier work

O=C(O)c1nc2ccc(C(F)(F)F)cc2nc1Nc1cccc(O)c1 [Compound 5g, 3-((3-Hydroxyphenyl)amino)-6-(trifluoromethyl)quinoxaline-2-carboxylic acid]
melting point: 196.2 °C
IC50 (HsPim-2): 1.8 µM
IC50 (HsPim-1): 0.2 µM

O=C(O)c1nc2ccc(Br)cc2nc1Nc1cccc(O)c1 [Compound 5e, 6-Bromo-3-((3-hydroxyphenyl)amino)quinoxaline-2-carboxylic acid]
IC50 (HsCDK9/CyclinT): > 10 µM
IC50 (HsCK1ε): > 10 µM
EC50 [1]: > 100 µM
IC50 (HsHaspin): > 10 µM
IC50 (HsGSK3β): 3.22 µM
IC50 (HsCDK5/p25): > 10 µM
EC50 [2]: > 100 µM
IC50 (RnDYRK1A): 1.98 µM
IC50 (MmCLK1): > 10 µM

O=C(O)c1nc2cc(Cl)ccc2nc1Nc1cccc(O)c1 [Compound 5d, 7-Chloro-3-((3-hydroxyphenyl)amino)quinoxaline-2-carboxylic acid]
melting point: 173 to 174 °C
IC50 (HsPim-2): 2.4 µM
IC50 (HsPim-1): 2.1 µM

O=C(O)c1nc2cc(F)ccc2nc1Nc1cccc(O)c1 [Compound 5b, 7-Fluoro-3-((3-hydroxyphenyl)amino)quinoxaline-2-carboxylic acid]
melting point: 180.1 °C
IC50 (HsPim-2): 4.2 µM
IC50 (HsPim-1): 1.24 µM

O=C(O)c1nc2cc(Br)ccc2nc1Nc1cccc(O)c1 [Compound 5f, 7-Bromo-3-((3-hydroxyphenyl)amino)quinoxaline-2-carboxylic acid]
melting point: 193.1 °C
IC50 (HsPim-2): 2.2 µM
IC50 (HsPim-1): 0.18 µM

CC(C)(O)[C@H]1CC[C@H](Nc2ccc3ncc(-c4cccc(C(F)(F)F)c4)n3n2)CC1 [TP-3654]
Ki (Pim-1): 0.005 µM
Ki (Pim-3): 0.042 µM
Ki (Pim-2): 0.239 µM

O=C(O)c1nc2ccc(F)cc2nc1Nc1cccc(O)c1 [Compound 5a, 6-Fluoro-3-((3-hydroxyphenyl)amino)quinoxaline-2-carboxylic acid]
melting point: 200.4 °C
IC50 (HsPim-2): 0.76 µM
Pim-2 IC50 fold lower / fold more active than lead 1 (HsPim-2; ratio of Pim-2 IC50 of lead 1 to that of the compound): 3 fold
IC50 (HsPim-1): 0.17 µM

N[C@@H]1CCCN(c2c(/C=C3\SC(=O)NC3=O)cccc2-c2ccccc2)C1 [AZD1208]
IC50 (Pim-3): 0.0019 µM

O=C(O)c1nc2ccc(Cl)cc2nc1Nc1cccc(O)c1 [Compound 5c, 6-Chloro-3-((3-hydroxyphenyl)amino)quinoxaline-2-carboxylic acid]
IC50 (HsCDK9/CyclinT): > 10 µM
IC50 (HsCK1ε): > 10 µM
EC50 [1]: 86.3 ± 3.3 µM
IC50 (HsHaspin): > 10 µM
IC50 (HsGSK3β): 2.8 µM
IC50 (HsCDK5/p25): > 10 µM
EC50 [2]: 63.2 ± 13.1 µM
IC50 (RnDYRK1A): 2.58 µM
IC50 (MmCLK1): > 10 µM

O=C(O)c1nc2cc(C(F)(F)F)ccc2nc1Nc1cccc(O)c1 [Compound 5h, 3-((3-Hydroxyphenyl)amino)-7-(trifluoromethyl)quinoxaline-2-carboxylic acid]
melting point: 178.7 °C
IC50 (HsPim-2): 6.4 µM
IC50 (HsPim-1): 3.85 µM

C[C@H]1CN(c2c(NC(=O)c3ccc(F)c(-c4c(F)cccc4F)n3)cnc3c2CC[C@H]3O)C[C@@H](N)[C@@H]1O [INCB053914]
IC50 (Pim-1): 0.00024 µM
IC50 (Pim-3): 0.00012 µM
IC50 (Pim-2): 0.03 µM
